Measurements taken from US20060121083A1 (priority 2003, published 2006).
Values after ≈ are worked out from the molar mass of the structure shown. Where two headings read alike, the source gives them in different places. Ends that are not written are not given here. Peptide text beside a SMILES is read from it.

Columns and labels:
S. aureus = experiment: MIC assayed against S. aureus (Table 1); format: cell-based
[1] = system: methicillin-resistant S. aureus (MRSA); format: in vivo; conditions: rats, MRSA challenge
From the text: (§1) Animals: Adult male Wistar rats, 250-300 gr (I.N.R.C.A. I.R.R.C.S. animal facility, Ancona) were used, with 15 animals per experimental group.
(§2) Mammalian graft infection model: Rats were anesthetized and their hair of the back was shaved and the skin cleansed with 10 percent povidone-iodine solution. One subcutaneous pocket was made on each side of the median line by a 1.5 cm incision. Aseptically, 1 square centimeter sterile albumin-sealed Dacron™ grafts (Albograft™, Sorin Biomedica Cardio, S.p.A., Saluggia VC, Italy) were implanted into the pockets. Prior to implantation grafts were soaked for 20 minutes in sterile antibiotic solutions. The pockets were closed by means of skin clips and saline solution (1 mL) containing methicillin-resistant S. aureus (MRSA) or S. epidermidis (MRSE) at a concentration of 2×10^7 colony-forming units (CFU)/mL was inoculated onto the graft surface by using a tuberculin syringe to create a subcutaneous fluid-filled pocket. The animals were returned to individual cages and thoroughly examined daily. All grafts were explanted at 7 days following implantation.
(§3) Assessment of the infection: The explanted grafts were placed in sterile tubes, washed in sterile saline solution, placed in tubes containing 10 mL of phosphate-buffered saline solution and sonicated for 5 minutes to remove the adherent bacteria from the grafts (Balaban, N. et al, 2003. Kidney Int. 63: 340-345). Quantitation of viable staphylococci was performed by culturing serial dilutions (0.1 mL) of the bacterial suspensions on blood agar plates at 37 degrees centigrade for 48 hours. The organisms were quantitated by counting the number of colony-forming units (CFUs) per plate. The limit of detection for this method was approximately 10 CFU/mL.
(§4) Statistical analysis: MIC values are presented as the geometric mean of three separate experiments. […] Significance was accepted when the P value was less than/equal to 0.05.

[2] = system: methicillin-resistant S. epidermidis (MRSE); format: in vivo; conditions: rats, MRSE challenge
From the text: as §1, §2, §3, §4

S. aureus cells = experiment: Bacterial growth (CFU) of S. aureus culture grown with peptides; format: cell-based; conditions: in-vitro culture grown 2.5 hours with peptide, FIG. 5a
Protocol: (§5) RNAIII synthesis and bacterial growth: Cultures of S. aureus (20 million cells in a volume of 30 microliters) containing an expression construct for expression of the fusion protein maiii::blaZ (described in Gov, Y. et al., 2001. Peptides. 22: 1609-20 were grown for 2.5 hours with 5 microliters peptide solution or control buffer. A 5 microliter sample was taken from the cultures, diluted in saline, and streaked on LB agar plates to quantitate CFUs. The remainder of the cultures were used to determine RNAIII synthesis (beta-lactamase activity). This was performed by adding a substrate of beta-lactamase (nitrocefin), and determining OD 490 nm/OD 650 nm, as previously described (Gov, Y. et al., 2001. Peptides. 22: 1609-20).

RNAIII synthesis = RNAIII synthesis (beta-lactamase reporter, nitrocefin); format: cell-based, S. aureus; conditions: for Inhibition of RNAIII synthesis: FIG. 5b, at high peptide concentrations mostly attributable to cell death
Protocol: as §5

[3] = system: Methicillin-resistant S. aureus ATCC 43300; experiment: MIC by microbroth dilution method, MRSA; format: cell-based; conditions: broth-micro dilution
Protocol: (§6) Bacterial strains: Methicillin-resistant S. aureus (abbreviated […]) ATCC 43300 was commercially purchased from Oxoid S.p.A., Milan, Italy. Methicillin-resistant S. epidermidis (abbreviated MRSE) is a clinical strain from the Institute of Infectious Diseases and Public Health, University of Ancona, Italy.
(§7) Bacterial strain antibiotic suscepdbilty analysis: The antimicrobial susceptibilities of the bacterial strains were determined by using the microbroth dilution method, according to the procedures outlined by the National Committee for Clinical Laboratory Standards (U.S.A.). The minimal inhibitory concentration (MIC) was taken as the lowest antibiotic concentration at which observable growth was inhibited. Experiments were performed in triplicate.
as §4

[4] = system: Methicillin-resistant S. epidermidis clinical strain; experiment: MIC by microbroth dilution method, MRSE; format: cell-based; conditions: broth-micro dilution
Protocol: as §6, §7, §4

[5] = graft presoaked in 10 micrograms/mL peptide, explanted at 7 days
[6] = graft presoaked in 20 micrograms/mL peptide, explanted at 7 days
[7] = graft presoaked in 50 micrograms/mL peptide, explanted at 7 days
[8] = graft pre-soaked with 5 micrograms/mL rifampin alone
[9] = graft pre-soaked with 5 micrograms/mL rifampin alone, 7 days

CC(C)C[C@H](NC(=O)[C@H](C)N)C(=O)N[C@@H](Cc1c[nH]c2ccccc12)C(=O)N[C@@H](CCCCN)C(=O)N[C@H](C(=O)N[C@@H](CC(C)C)C(=O)N[C@@H](CC(C)C)C(=O)N[C@@H](CCCCN)C(=O)N[C@@H](CCCCN)C(=O)N[C@H](C(=O)N[C@@H](CC(C)C)C(=O)N[C@@H](CCCCN)C(=O)N[C@@H](C)C(N)=O)C(C)C)[C@@H](C)O [DD13] (H-ALWKTLLKKVLKA-NH2; N-terminus assumed)
MIC (minimal inhibitory concentration) (S. aureus): 9 ± 3 µM (≈ 13.6 µg/mL) | Graft bacterial load (quantitative culture) [1, 5]: 5.2×10^2±1.6×10^2 CFU/ml | Graft bacterial load (quantitative culture) [1, 6]: 4.0×10^1±1.7×10^1 CFU/ml | Graft bacterial load (quantitative culture) [1, 7]: negative quantitative cultures | Graft bacterial load (quantitative culture) [2, 5]: 5.2×10^2±1.6×10^2 CFU/ml | Graft bacterial load (quantitative culture) [2, 6]: 4.4×10^1±1.3×10^1 CFU/ml | Graft bacterial load (quantitative culture) [2, 7]: negative quantitative cultures | Bactericidal activity (CFU counts) (S. aureus cells): potent bactericidal activity | Inhibition of RNAIII synthesis (RNAIII synthesis): more efficient than RIP | Effect on RNAIII synthesis at low peptide concentrations (RNAIII synthesis; low peptide concentrations where no cell death occurred (inset FIG. 5b)): unable to affect RNAIII synthesis

CO[C@H]1/C=C/O[C@@]2(C)Oc3c(C)c(O)c4c(O)c(c(/C=N/N5CCN(C)CC5)c(O)c4c3C2=O)NC(=O)/C(C)=C\C=C\[C@H](C)[C@H](O)[C@@H](C)[C@@H](O)[C@@H](C)[C@H](OC(C)=O)[C@@H]1C [rifampin]
MIC ([3]; Staphylococcus aureus, read-out: MIC): 0.5 µg/mL (≈ 0.608 µM) | MIC ([4]; Staphylococcus epidermidis, read-out: MIC): 0.5 µg/mL (≈ 0.608 µM) | Reduction in bacterial CFU compared to control [1, 8]: about 50% | Graft bacterial load (quantitative culture) [1, 9]: 6.7×10^3±9.1×10^2 CFU/mL | Reduction in numbers of PFUs compared to control [2, 8]: about 50% | Graft bacterial load (quantitative culture) [2, 9]: 8.8×10^2±3.0×10^2 CFU/mL

YSPWTNF (YSPWTNF-NH2) [RIP]
MIC [3]: > 128 micrograms/mL | MIC [4]: > 128 micrograms/mL | Graft bacterial load (quantitative culture) [1, 5]: 4.1×10^4±7.1×10^3 CFU/ml | Graft bacterial load (quantitative culture) [1, 6]: 5.9×10^3±1.7×10^3 CFU/ml | Graft bacterial load (quantitative culture) [1, 7]: 8.4×10^1±3.6×10^1 CFU/ml | Graft bacterial load (quantitative culture) [2, 5]: 6.9×10^3±1.9×10^3 CFU/ml | Graft bacterial load (quantitative culture) [2, 6]: 8.5×10^2±2.0×10^2 CFU/ml | Graft bacterial load (quantitative culture) [2, 7]: 3.9×10^1±1.6×10^1 CFU/ml | Bactericidal activity (CFU counts) (S. aureus cells): virtually inactive | Inhibition of RNAIII synthesis (RNAIII synthesis): efficiently inhibited RNAIII synthesis
